Experimental data taken from PubChem BioAssay (NCI).
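In this assay, cells in 96-well plates receive the compound at five concentrations for 48 hours. Endpoints are linearly interpolated between the surrounding concentrations. TGI is the concentration that stops growth completely.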

What was measured:
Test in all cases: NCI tumour cell line growth inhibition, 48 h
[1] = system: ACHN renal
[2] = system: HOP-62 NSCLC
[3] = system: XF 498 CNS
[4] = system: SNB-75 CNS
[5] = system: OVCAR-8 ovarian
[6] = system: NCI-H460 lung
[7] = system: RXF 393 renal
[8] = system: K-562 leukemia
[9] = system: NCI-H226 lung
[10] = system: LXFL 529 NSCLC
[11] = system: HCC-2998 colon
[12] = system: KM12 colon
[13] = system: UACC-257 melanoma
[14] = system: 786-0 renal
[15] = system: COLO 205 colon
[16] = system: SK-MEL-28 melanoma
[17] = system: KM20L2 colon
[18] = system: UO-31 renal
[19] = system: CCRF-CEM leukemia
[20] = system: LOX IMVI melanoma
[21] = system: SF-295 CNS
[22] = system: TK-10 renal
[23] = system: HCT-15 colon
[24] = system: M14 melanoma
[25] = system: IGROV1 ovarian
[26] = system: SK-MEL-5 melanoma
[27] = system: A549 NSCLC
[28] = system: NCI-H23 lung
[29] = system: OVCAR-3 ovarian
[30] = system: MALME-3M melanoma
[31] = system: OVCAR-5 ovarian
[32] = system: SNB-78 CNS
[33] = system: DLD-1 colon
[34] = system: SK-MEL-2 melanoma
[35] = system: SF-268 CNS
[36] = system: A498 renal
[37] = system: OVCAR-4 ovarian
[38] = system: M19-MEL melanoma
[39] = system: DMS 273 small cell lung
[40] = system: HCT-116 colon
[41] = system: SF-539 CNS
[42] = system: HOP-92 NSCLC
[43] = system: HOP-18 NSCLC
[44] = system: HT29 colon
[45] = system: RXF-631 renal
[46] = system: EKVX NSCLC
[47] = system: CAKI-1 renal
[48] = system: DMS 114 small cell lung
[49] = system: MOLT-4 leukemia
[50] = system: SR leukemia
[51] = system: UACC-62 melanoma
[52] = system: RPMI-8226 leukemia
[53] = system: HL-60(TB) leukemia
[54] = system: SN12C renal
[55] = system: SNB-19 CNS
[56] = system: U251 CNS
[57] = system: NCI-H522 lung
[58] = system: SW-620 colon
[59] = system: SK-OV-3 ovarian
[60] = system: SN12K1 renal
[61] = system: NCI/ADR-RES ovarian
[62] = system: P388 leukemia
[63] = system: P388/ADR leukemia
[64] = system: MCF7 breast

SMILES: CC(CC(=O)Nc1ccc(NC(=O)CC(C)N=NC(N)=S)cc1)N=NC(N)=S (centres undefined)
- TGI [1]: > 100 µM
- TGI [2]: > 100 µM
- TGI [3]: > 100 µM
- TGI [4]: > 100 µM
- TGI [5]: > 100 µM
- TGI [6]: > 100 µM
- TGI [7]: > 100 µM
- TGI [8]: > 100 µM
- TGI [9]: > 100 µM
- TGI [10]: > 100 µM
- TGI [11]: > 100 µM
- TGI [12]: > 100 µM
- TGI [13]: > 100 µM
- TGI [14]: > 100 µM
- TGI [15]: > 100 µM
- TGI [16]: > 100 µM
- TGI [17]: > 100 µM
- TGI [18]: > 100 µM
- TGI [19]: > 100 µM
- TGI [20]: > 100 µM
- TGI [21]: > 100 µM
- TGI [22]: > 100 µM
- TGI [23]: > 100 µM
- TGI [24]: > 100 µM
- TGI [25]: > 100 µM
- TGI [26]: > 100 µM
- TGI [27]: > 100 µM
- TGI [28]: > 100 µM
- TGI [29]: > 100 µM
- TGI [30]: > 100 µM
- TGI [31]: > 100 µM
- TGI [32]: > 100 µM
- TGI [33]: > 100 µM
- TGI [34]: > 100 µM
- TGI [35]: > 100 µM
- TGI [36]: > 100 µM
- TGI [37]: > 100 µM
- TGI [38]: > 100 µM
- TGI [39]: > 100 µM
- TGI [40]: > 100 µM
- TGI [41]: > 100 µM
- TGI [42]: > 100 µM
- TGI [43]: > 100 µM
- TGI [44]: > 100 µM
- TGI [45]: > 100 µM
- TGI [46]: > 100 µM
- TGI [47]: > 100 µM
- TGI [48]: > 100 µM
- TGI [49]: > 100 µM
- TGI [50]: > 100 µM
- TGI [51]: > 100 µM
- TGI [52]: > 100 µM
- TGI [53]: > 100 µM
- TGI [54]: > 100 µM
- TGI [55]: > 100 µM

SMILES: O=c1ccc2cc3ccc4cccc5ccc(c2o1)c3c45
- TGI [1]: 34 µM
- TGI [3]: 56.8 µM
- TGI [4]: 50 µM
- TGI [5]: > 100 µM
- TGI [56]: 31.1 µM
- TGI [6]: > 100 µM
- TGI [8]: > 100 µM
- TGI [9]: 58.3 µM
- TGI [10]: > 100 µM
- TGI [15]: > 100 µM
- TGI [16]: > 100 µM
- TGI [17]: > 100 µM
- TGI [18]: 44.9 µM
- TGI [19]: > 100 µM
- TGI [20]: 55.6 µM
- TGI [21]: > 100 µM
- TGI [22]: > 100 µM
- TGI [23]: > 100 µM
- TGI [24]: > 100 µM
- TGI [25]: > 100 µM
- TGI [26]: > 100 µM
- TGI [28]: > 100 µM
- TGI [30]: > 100 µM
- TGI [32]: > 100 µM
- TGI [33]: > 100 µM
- TGI [34]: > 100 µM
- TGI [35]: > 100 µM
- TGI [36]: 44.9 µM
- TGI [57]: > 100 µM
- TGI [58]: > 100 µM
- TGI [38]: > 100 µM
- TGI [41]: 21.9 µM
- TGI [42]: > 100 µM
- TGI [43]: > 100 µM
- TGI [44]: > 100 µM
- TGI [45]: > 100 µM
- TGI [46]: > 100 µM
- TGI [47]: > 100 µM
- TGI [48]: > 100 µM
- TGI [49]: > 100 µM
- TGI [51]: > 100 µM
- TGI [59]: 32.6 µM
- TGI [52]: > 100 µM
- TGI [53]: > 100 µM
- TGI [54]: > 100 µM
- TGI [55]: > 100 µM

SMILES: CC/C(=N\NS(=O)(=O)c1ccccc1)c1ccccc1
- TGI [1]: > 100 µM
- TGI [2]: > 100 µM
- TGI [3]: > 100 µM
- TGI [4]: > 100 µM
- TGI [5]: > 100 µM
- TGI [56]: > 100 µM
- TGI [6]: > 100 µM
- TGI [7]: > 100 µM
- TGI [8]: > 100 µM
- TGI [9]: > 100 µM
- TGI [10]: > 100 µM
- TGI [11]: > 100 µM
- TGI [12]: > 100 µM
- TGI [13]: > 100 µM
- TGI [14]: > 100 µM
- TGI [15]: > 100 µM
- TGI [16]: > 100 µM
- TGI [17]: > 100 µM
- TGI [18]: > 100 µM
- TGI [19]: > 100 µM
- TGI [20]: > 100 µM
- TGI [21]: > 100 µM
- TGI [22]: > 100 µM
- TGI [23]: > 100 µM
- TGI [24]: > 100 µM
- TGI [25]: > 100 µM
- TGI [26]: > 100 µM
- TGI [27]: > 100 µM
- TGI [28]: > 100 µM
- TGI [29]: > 100 µM
- TGI [30]: > 100 µM
- TGI [31]: > 100 µM
- TGI [32]: > 100 µM
- TGI [33]: > 100 µM
- TGI [34]: > 100 µM
- TGI [35]: > 100 µM
- TGI [36]: > 100 µM
- TGI [37]: > 100 µM
- TGI [58]: > 100 µM
- TGI [38]: > 100 µM
- TGI [39]: > 100 µM
- TGI [40]: > 100 µM
- TGI [41]: > 100 µM
- TGI [42]: > 100 µM
- TGI [43]: > 100 µM
- TGI [44]: > 100 µM
- TGI [45]: > 100 µM
- TGI [46]: > 100 µM
- TGI [47]: > 100 µM
- TGI [49]: > 100 µM
- TGI [50]: > 100 µM
- TGI [51]: > 100 µM
- TGI [59]: > 100 µM
- TGI [52]: > 100 µM
- TGI [53]: > 100 µM
- TGI [54]: > 100 µM

SMILES: O=C(NC(Cc1ccc(I)cc1)C(=O)O)c1ccc(I)cc1 (centres undefined)
- TGI [2]: > 100 µM
- TGI [3]: > 100 µM
- TGI [4]: > 100 µM
- TGI [60]: > 100 µM
- TGI [5]: > 100 µM
- TGI [56]: > 100 µM
- TGI [6]: > 100 µM
- TGI [7]: > 100 µM
- TGI [8]: > 100 µM
- TGI [9]: > 100 µM
- TGI [61]: > 100 µM
- TGI [11]: > 77.3 µM
- TGI [12]: > 100 µM
- TGI [13]: > 100 µM
- TGI [15]: > 100 µM
- TGI [16]: > 100 µM
- TGI [17]: > 100 µM
- TGI [18]: > 36.6 µM
- TGI [19]: > 100 µM
- TGI [20]: > 100 µM
- TGI [21]: > 100 µM
- TGI [23]: > 100 µM
- TGI [25]: > 47.6 µM
- TGI [26]: > 100 µM
- TGI [27]: > 100 µM
- TGI [28]: > 100 µM
- TGI [29]: 97.4 µM
- TGI [30]: > 100 µM
- TGI [62]: > 100 µM
- TGI [31]: > 100 µM
- TGI [32]: > 100 µM
- TGI [63]: > 100 µM
- TGI [33]: > 100 µM
- TGI [34]: > 100 µM
- TGI [35]: > 100 µM
- TGI [36]: > 100 µM
- TGI [64]: > 100 µM
- TGI [37]: > 100 µM
- TGI [57]: > 100 µM
- TGI [58]: > 37.3 µM
- TGI [38]: > 100 µM
- TGI [39]: > 100 µM
- TGI [40]: > 100 µM
- TGI [41]: > 100 µM
- TGI [42]: > 100 µM
- TGI [43]: > 100 µM
- TGI [44]: > 100 µM
- TGI [46]: > 83.6 µM
- TGI [47]: > 100 µM
- TGI [48]: > 100 µM
- TGI [49]: > 100 µM
- TGI [51]: > 82.1 µM
- TGI [59]: > 100 µM
- TGI [52]: > 100 µM
- TGI [53]: > 100 µM
- TGI [54]: > 100 µM
- TGI [55]: > 100 µM
